Test results: the NIST ThermoML archive (doi:10.1016/j.jct.2016.10.031)

Details: for molar entropy: 101.33 kPa, Small (less than 1 g) adiabatic calorimetry

CC(C)(C)c1ccc(Oc2ccc([N+](=O)[O-])cc2)cc1 [1-(tert-butyl)-4-(4-nitrophenoxy)benzene]
Details	Glass transition temperature [°C]	Triple point temperature [K]	molar entropy [J/K/mol]
5 K, Crystal	–	–	0.4639
10 K, Crystal	–	–	3.11
15 K, Crystal	–	–	7.882
20 K, Crystal	–	–	14.05
25 K, Crystal	–	–	21.04
30 K, Crystal	–	–	28.52
35 K, Crystal	–	–	36.25
40 K, Crystal	–	–	44.07
45 K, Crystal	–	–	51.97
50 K, Crystal	–	–	59.86
60 K, Crystal	–	–	75.08
70 K, Crystal	–	–	89.8
80 K, Crystal	–	–	104.1
90 K, Crystal	–	–	117.98
100 K, Crystal	–	–	131.7
110 K, Crystal	–	–	145.09
120 K, Crystal	–	–	158.31
130 K, Crystal	–	–	171.36
140 K, Crystal	–	–	184.17
150 K, Crystal	–	–	196.89
160 K, Crystal	–	–	209.52
170 K, Crystal	–	–	222
180 K, Crystal	–	–	234.38
190 K, Crystal	–	–	246.69
200 K, Crystal	–	–	259
210 K, Crystal	–	–	271.13
220 K, Crystal	–	–	283.27
230 K, Crystal	–	–	295.33
240 K, Crystal	–	–	307.47
250 K, Crystal	–	–	319.44
260 K, Crystal	–	–	331.5
270 K, Crystal	–	–	343.55
280 K, Crystal	–	–	355.53
290 K, Crystal	–	–	367.58
298.15 K, Crystal	–	–	377.39
300 K, Crystal	–	–	379.64
310 K, Crystal	–	–	391.78
320 K, Crystal	–	–	403.92
330 K, Crystal	–	–	416.14
334.8 K, Crystal	–	–	422.04
334.8 K, Liquid	–	–	482.07
340 K, Liquid	–	–	488.97
350 K, Liquid	–	–	502.03
360 K, Liquid	–	–	514.91
370 K, Liquid	–	–	527.55
Crystal, Adiabatic calorimetry	–	334.8	–
Glass, Adiabatic calorimetry	-39.3	–	–
